Earlier results, collected in paper PMC6422671 (British Journal of Clinical Pharmacology, 2019).

System: CYP3A4
Design: method as in unpublished data
Details: in vitro; ref unpublished data; cited from earlier work

Q: Which “involvement of CYP3A4 in metabolism” value does the source give for `C[C@@H](N)c1cc(Cl)ccc1Cn1c(=S)[nH]c(=O)c2[nH]ccc21` [AZD4831] here?
A: involved in the metabolism
